Ends that are not written are not given here.
Assays:
UPF1-LIN28A interaction = experiment: Proximity ligation assay (PLA) of UPF1-LIN28A complexes; format: cell-based; settings: LIN28A-overexpressing HeLa and CHA15 cells, n = 3
Experimental: The in situ proximity ligation assay (PLA) was performed on fixed and permeabilised cells using Duolink In Situ Red kit mouse/rabbit (Sigma-Aldrich, DUO92101), according to the manufacturer’s protocol. Briefly, fixed and permeabilised cells were incubated with a blocking solution for 1 h at 37 °C and then incubated with the following primary antibodies: anti-UPF1 (Cell Signaling Technology, 12040; 1:200) and LIN28A (Cell Signaling Technology, 5930; 1:200) overnight at 4 °C. After incubation, the coverslips were washed twice with 1× buffer A, followed by incubation with PLA probes for 1 h at 37 °C. After washing twice with 1× buffer A for 5 min, the coverslip was incubated with the ligation solution for 30 min at 37 °C. Coverslips were washed twice with 1× buffer A, followed by an amplification step with polymerase for 100 min at 37 °C. Finally, the coverslip was washed twice with 1× buffer B and once with 0.01× buffer B and then mounted in […] with DAPI mounting medium (Vector Laboratories, H1200).
Immunofluorescence staining, proximity ligation assay imaging, and cell-penetrating efficiency of CPP-FITC were imaged with a confocal laser scanning microscope (Leica, TSC SP5) or immunofluorescence microscope (Leica, DM5000B). Z-stacks were captured, with sections spanning the entire cell. […]

[1] = tested on: CHA15 cells transcriptome / NMD targets; experiment: RNA-seq of CPP-P8/CPP-P1-treated CHA15 cells with siControl or siLIN28A (Supplementary Fig. 6e); format: cell-based, Homo sapiens
Experimental: For CPP-conjugated peptide delivery, HeLa, 293T, and PA-1 cells were incubated with CPP-conjugated peptides or CPP-FITC at 2 μM in DMEM with 10% FBS for 12 h a day before cell harvest. hPSCs were treated with CPP-conjugated peptides at 10 μM in mTeSR Plus Medium, and the peptide-containing medium was changed every day over 10 days. The ROCK inhibitor (Tocris Bioscience, Y-27632) treated-hPSCs were dissociated into single cells using Accutase (Merck, SCR005) and differentiated into ectoderm, mesoderm, and endoderm using the STEMdiff Trilineage Differentiation Kit ([…] Technologies, 05230) following the manufacturer’s protocol. Differentiated cells treated with CPP-conjugated peptides were analysed at 0, 3, and 5 days for ectoderm and endoderm, and at 0, 3, and 4 days for mesoderm.
Total RNA concentration was calculated using Quant-IT RiboGreen (Invitrogen, R11490). To assess the integrity of the total RNA, samples were run on a TapeStation RNA screentape (Agilent). Only high-quality RNA preparations with RNA integrity number greater than 7.0 were used for the RNA library construction. A library was independently prepared with 1 μg of total RNA from each sample using the Illumina TruSeq Stranded mRNA Sample Prep Kit (Illumina, 20020594). The first step in the workflow involves purifying poly‐A-containing mRNA molecules using poly‐T‐attached magnetic beads. Following purification, mRNA was fragmented into small pieces using divalent cations at elevated temperatures. The cleaved RNA fragments were copied into first-strand cDNA using SuperScript II reverse transcriptase (Invitrogen, 18064022) and random primers. This was followed by second-strand cDNA synthesis using DNA polymerase I, RNase H, and dUTP. These cDNA fragments underwent an end repair process, adding a single ‘A’ base and ligating the adapters. The products were purified and enriched via PCR to create the final cDNA library. The libraries were quantified using the KAPA Library Quantification Kits for Illumina Sequencing platforms according to the qPCR Quantification Protocol Guide (KAPA BIOSYSTEMS, KR0405) and qualified using the TapeStation D1000 ScreenTape (Agilent). Indexed libraries were then submitted to an Illumina NovaSeq (Illumina), and Macrogen Inc. performed paired-end (2 × 100 bp) sequencing.
We pre-processed the raw reads from the sequencer to remove low-quality reads and adapter sequences before analysis and aligned the processed reads to Homo sapiens (GRCh37) using HISAT v2.1.0[52]. HISAT utilises two indices for alignment (a global whole-genome index and tens of thousands of small local indexes). These two types of indices are constructed using the same Burrows-Wheeler transform (BWT)/graph FM index (GFM) as Bowtie2. The reference genome sequence of Homo sapiens (GRCh37) and the annotation data were downloaded from the NCBI database. Transcript assembly was processed using StringTie v1.3.4d[53],[54]. […] Differentially expressed genes (DEGs) were analysed by ratio of FPKM or using DESeq2 with read counts. Log2 fold-change value of the NMD targets[25],[32], three germ layer markers, miRNA targets, or SDGs was converted into cumulative frequency curve using the R function, ‘ecdf’ (version 4.0.5). Gene functional classification and Gene ontology (GO) were performed using g:Profiler[56]. […]
Scale bars, 100 μm . d (Corresponding to Fig. 6d) RT -qPCR was perform ed to evaluate the level of indicated transcripts upon the indicated peptide treatm ent in CHA15 cells. e T ranscriptom e analysis was perf orm ed using signif icantly changed transcripts (p < 0.05) f rom siLIN28A or siControl in the indicated CPP-peptide treated CHA15 cells. Scatter […]
(bottom panel), respectively. f Levels of m ature endogenous m iRNAs in CHA15 cells, which were regulated by LIN28A, were assessed using RT -qPCR. Cum ulative f raction of log2 fold change in the expression of genes regulated by let-7-5p and m iR-16- 5p was shown as CDF graphs. […]

[2] = tested on: human fetal neural stem cells (VM-NSCs or CTX-NSCs); experiment: H2O2-stressed human fetal neural stem cells: survival and neuronal markers (peer review file); format: cell-based; settings: compared with CPP-P1
Text: 4. In addition to identifying the differentiation markers, what are the effects of LIN28A-UPF1 interactions on the functional differentiation phenotypes?
We observed that the levels of stem cell markers, POU5F1 (OCT4) and NANOG, were reduced when UPF1 and LIN28A interaction was disrupted by the […]
To determine the effects of CPP-P8 during […]
split every 4~6-days. After CPP-P8 treatment, the cell phenotypes treated with CPP-P8 looked more like the spontaneous differentiated cells than the ones treated with CPP-P1 and CPP-P2 (Fig. 6c and Supplementary Fig. 6b in the revised manuscript).
The final experiment to determine the functional phenotypes used treated human fetal neural stem cells (ventral midbrain (VM)-NSCs or cortex (CTX)-NSCs), which was stressed by H2O2, with the peptides (CPP-P1 or P8), and differentiation to neurons was initiated. The immunofluorescence results […]
neuron markers, Tyrosine hydroxylase (TH) and TUJ1 compared with CPP-P1 treatment. We are preparing another manuscript to show the effects of CPP-P8 on neuronal differentiation, we would like […]
We hope our additional experiments have addressed the reviewer’s concern.
Original Manuscript Revised Manuscript
Fig. 1e Supplementary Fig. 6b
(1 picture or pasted object on this page, not shown here)

[3] = CHA15, absence of LIN28A (siRNA)

| Sequence | PLA signal of UPF1-LIN28A complexes (UPF1-LIN28A interaction) | fraction deregulated in a LIN28A-independent manner ([1]; 7 (6+1) out of 95 (42+53)) | transcripts downregulated over 2-fold [1, 3] | transcripts upregulated over 2-fold [1, 3] | transcripts downregulated over 2-fold ([1]; CHA15, presence of LIN28A) | transcripts upregulated over 2-fold ([1]; CHA15, presence of LIN28A) | FEZF1-AS1 expression ([1]; CHA15, siControl) | LHX5-AS1 expression ([1]; CHA15, siControl) | LMO1 expression ([1]; CHA15, siControl) | CUZD1 expression ([1]; CHA15, siLIN28A) | CXCL5 expression ([1]; CHA15, siLIN28A) | MT2A expression ([1]; CHA15, siLIN28A) | transcriptome change in absence of LIN28A ([1]; hESCs, siLIN28A) | cell survival ([2]; DAPI staining) | dopaminergic neuron markers TH and TUJ1 [2] |
| --- | --- | --- | --- | --- | --- | --- | --- | --- | --- | --- | --- | --- | --- | --- | --- |
| KKKWCRKKKSSADEKRYRALKRTAERELLMNA [CPP-P8, CPP conjugated to P8] | weaker signals than CPP-P1 or -P2 | 7.4% | 2 transcripts | 12 | 53 transcripts | 42 transcripts | 20.4087 FPKM | 61.4319 FPKM | 15.1171 FPKM | 5.545 FPKM | 5.9 FPKM | 11.8304 FPKM | less impact on the transcriptome change, including NMD targets, in the absence of LIN28A |  |  |
| KKKWCRKKKSSADEKRYRALKRTAERELLMNA [P8] |  |  |  |  |  |  |  |  |  |  |  |  |  | increased cell survival (DAPI staining) | upregulated dopaminergic |
